Measurements published in PMC3271064, “Discrete Cyclic di-GMP-Dependent Control of Bacterial Predation versus Axenic Growth in Bdellovibrio bacteriovorus” (PLoS Pathogens, 2012).

Columns and labels:
DgcC (Bd1434) = biological target: T1, DgcC (Bd1434) (Bdellovibrio bacteriovorus, UniProt Q6MN29); experiment: diguanylyl cyclase assay, HPLC; assay type: biochemical; details: MBP-DgcC
T1 construct: MBP fusion, expressed in and purified from E. coli; MBP kept; natural GGEEF motif
T1 sequence (Q6MN29 1-408): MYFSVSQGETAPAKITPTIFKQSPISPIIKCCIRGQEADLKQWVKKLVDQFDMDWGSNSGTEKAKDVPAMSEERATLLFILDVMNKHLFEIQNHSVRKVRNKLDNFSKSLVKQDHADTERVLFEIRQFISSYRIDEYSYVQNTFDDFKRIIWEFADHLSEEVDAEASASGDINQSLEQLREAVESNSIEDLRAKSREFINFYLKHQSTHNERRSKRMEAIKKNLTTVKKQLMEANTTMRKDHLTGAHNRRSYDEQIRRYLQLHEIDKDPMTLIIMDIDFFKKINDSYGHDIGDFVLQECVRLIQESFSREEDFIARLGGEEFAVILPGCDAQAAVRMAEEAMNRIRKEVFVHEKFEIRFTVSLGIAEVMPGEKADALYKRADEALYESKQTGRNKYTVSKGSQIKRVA

DgcB (Bd0742) = biological target: T2, DgcB (Bd0742) (Bdellovibrio bacteriovorus, UniProt Q6MPU8); experiment: diguanylyl cyclase assay, HPLC; assay type: biochemical; details: MBP-DgcB; activity only after about 30 min incubation at 37°C
T2 construct: MBP fusion, expressed in and purified from E. coli; MBP kept; copurifies with c-di-GMP
T2 sequence (Q6MPU8 1-320): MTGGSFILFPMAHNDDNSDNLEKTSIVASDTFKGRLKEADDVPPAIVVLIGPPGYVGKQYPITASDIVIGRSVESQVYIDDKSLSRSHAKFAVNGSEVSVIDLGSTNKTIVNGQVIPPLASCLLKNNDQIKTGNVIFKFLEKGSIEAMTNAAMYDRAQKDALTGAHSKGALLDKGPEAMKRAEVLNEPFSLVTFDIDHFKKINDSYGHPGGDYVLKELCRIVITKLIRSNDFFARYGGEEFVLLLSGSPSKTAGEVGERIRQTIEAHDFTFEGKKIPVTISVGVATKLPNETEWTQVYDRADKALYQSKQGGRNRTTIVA

DgcA (Bd0367) = biological target: T3, DgcA (Bd0367) (Bdellovibrio bacteriovorus, UniProt Q6MQU2); experiment: diguanylyl cyclase assay, HPLC; assay type: biochemical; details: MBP-DgcA
T3 construct: gene pleD; MBP fusion, expressed in and purified from E. coli; MBP kept
T3 sequence (Q6MQU2 1-343): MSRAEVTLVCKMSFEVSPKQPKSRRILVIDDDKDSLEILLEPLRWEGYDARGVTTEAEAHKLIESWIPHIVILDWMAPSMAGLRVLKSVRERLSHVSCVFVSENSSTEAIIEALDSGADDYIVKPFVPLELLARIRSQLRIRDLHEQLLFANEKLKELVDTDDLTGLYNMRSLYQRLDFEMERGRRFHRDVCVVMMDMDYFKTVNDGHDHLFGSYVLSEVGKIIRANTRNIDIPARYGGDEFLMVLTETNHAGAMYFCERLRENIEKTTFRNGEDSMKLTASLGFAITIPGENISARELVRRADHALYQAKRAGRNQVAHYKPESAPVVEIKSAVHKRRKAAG

CdgA (Bd3125) = biological target: T4, CdgA (Bd3125) (Bdellovibrio bacteriovorus, UniProt Q6MIM9); experiment: equilibrium dialysis; assay type: binding; details: read-out: apparent Kd
T4 construct: MBP fusion, expressed in and purified from E. coli; MBP kept; degenerate GVNEF motif is natural
T4 sequence (Q6MIM9 1-496): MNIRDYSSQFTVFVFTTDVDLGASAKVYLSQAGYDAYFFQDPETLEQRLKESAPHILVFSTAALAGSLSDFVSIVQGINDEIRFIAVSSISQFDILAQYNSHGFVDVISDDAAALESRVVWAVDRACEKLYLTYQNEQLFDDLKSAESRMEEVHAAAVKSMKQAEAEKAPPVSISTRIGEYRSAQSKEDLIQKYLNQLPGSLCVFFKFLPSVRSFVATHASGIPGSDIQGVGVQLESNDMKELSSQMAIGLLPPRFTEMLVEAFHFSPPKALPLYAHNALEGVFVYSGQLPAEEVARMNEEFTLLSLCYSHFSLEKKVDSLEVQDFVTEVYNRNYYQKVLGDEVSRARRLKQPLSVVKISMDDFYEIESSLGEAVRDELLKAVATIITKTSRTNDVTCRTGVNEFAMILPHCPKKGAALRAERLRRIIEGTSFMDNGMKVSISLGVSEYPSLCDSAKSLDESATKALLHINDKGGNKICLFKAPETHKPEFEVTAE

Row | Compound | diguanylyl cyclase assay, HPLC (DgcC (Bd1434)) | diguanylyl cyclase assay, HPLC (DgcB (Bd0742)) | diguanylyl cyclase assay, HPLC (DgcA (Bd0367)) | diguanylyl cyclase assay, HPLC (DgcC (Bd1434); from GTP) | Kd (CdgA (Bd3125)) | diguanylyl cyclase assay, HPLC (DgcA (Bd0367); from GTP)
1 | Nc1nc2c(ncn2[C@@H]2O[C@H](COP(=O)(O)OP(=O)(O)OP(=O)(O)O)[C@@H](O)[C@H]2O)c(=O)[nH]1 [GTP] | DgcA, DgcB and DgcC proved to function as diguanylyl cyclases (Figure 1A–C) | DgcA, DgcB and DgcC proved to function as diguanylyl cyclases (Figure 1A–C) | DgcA, DgcB and DgcC proved to function as diguanylyl cyclases (Figure 1A–C) | – | – | –
2 | Nc1nc2c(ncn2[C@@H]2O[C@@H]3COP(=O)(O)O[C@H]4[C@@H](O)[C@H](n5cnc6c(=O)[nH]c(N)nc65)O[C@@H]4COP(=O)(O)O[C@H]3[C@H]2O)c(=O)[nH]1 [c-di-GMP] | – | – | – | HPLC profiles show peaks of c-di-GMP (product) and GTP (substrate) | ~2 µM | HPLC profiles show peaks of c-di-GMP (product) and GTP (substrate)
